Assay results from patent publication US20140005163A1 (NOVARTIS AG, priority 2010, published 2014).

Assays:
PI3K alpha = molecular target: T1, PI3K alpha (Homo sapiens, UniProt P42336); test: PI3K alpha kinase assay (Kinase-Glo luminescence); assay type: biochemical
T1 construct: p85(iSH2) fusion partner (see partner chain) (N); His tag (C); made in house; host or cells: baculovirus; Tn5 (Trichoplusia ni) or TiniPro insect cells
How it was run: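 PI3Kα construct EMV B1075 (10 nM final) was preincubated with 10 μg/mL phosphatidylinositol in 10 mM Tris-HCl pH 7.5, 3 mM MgCl2, 50 mM NaCl, 0.05% CHAPS, 1 mM DTT. Reaction started with 1 μM ATP, 60 min at room temperature; remaining ATP measured by Kinase-Glo luminescence. IC50 from 4-parameter logistic fit of 8-point titrations.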

PI3K beta = molecular target: T2, PI3K beta (Homo sapiens, UniProt P42338); test: PI3K beta kinase assay (Kinase-Glo luminescence); assay type: biochemical
T2 construct: for the full-length p110-b subunit are generated and fused by overlapping PCR; p85(iSH2) fusion partner (see partner chain) (N); His tag (C); made in house; host or cells: baculovirus; Tn5 (Trichoplusia ni) or TiniPro insect cells
T2 sequence (P42338 with tags, fused parts or gaps limits assumed): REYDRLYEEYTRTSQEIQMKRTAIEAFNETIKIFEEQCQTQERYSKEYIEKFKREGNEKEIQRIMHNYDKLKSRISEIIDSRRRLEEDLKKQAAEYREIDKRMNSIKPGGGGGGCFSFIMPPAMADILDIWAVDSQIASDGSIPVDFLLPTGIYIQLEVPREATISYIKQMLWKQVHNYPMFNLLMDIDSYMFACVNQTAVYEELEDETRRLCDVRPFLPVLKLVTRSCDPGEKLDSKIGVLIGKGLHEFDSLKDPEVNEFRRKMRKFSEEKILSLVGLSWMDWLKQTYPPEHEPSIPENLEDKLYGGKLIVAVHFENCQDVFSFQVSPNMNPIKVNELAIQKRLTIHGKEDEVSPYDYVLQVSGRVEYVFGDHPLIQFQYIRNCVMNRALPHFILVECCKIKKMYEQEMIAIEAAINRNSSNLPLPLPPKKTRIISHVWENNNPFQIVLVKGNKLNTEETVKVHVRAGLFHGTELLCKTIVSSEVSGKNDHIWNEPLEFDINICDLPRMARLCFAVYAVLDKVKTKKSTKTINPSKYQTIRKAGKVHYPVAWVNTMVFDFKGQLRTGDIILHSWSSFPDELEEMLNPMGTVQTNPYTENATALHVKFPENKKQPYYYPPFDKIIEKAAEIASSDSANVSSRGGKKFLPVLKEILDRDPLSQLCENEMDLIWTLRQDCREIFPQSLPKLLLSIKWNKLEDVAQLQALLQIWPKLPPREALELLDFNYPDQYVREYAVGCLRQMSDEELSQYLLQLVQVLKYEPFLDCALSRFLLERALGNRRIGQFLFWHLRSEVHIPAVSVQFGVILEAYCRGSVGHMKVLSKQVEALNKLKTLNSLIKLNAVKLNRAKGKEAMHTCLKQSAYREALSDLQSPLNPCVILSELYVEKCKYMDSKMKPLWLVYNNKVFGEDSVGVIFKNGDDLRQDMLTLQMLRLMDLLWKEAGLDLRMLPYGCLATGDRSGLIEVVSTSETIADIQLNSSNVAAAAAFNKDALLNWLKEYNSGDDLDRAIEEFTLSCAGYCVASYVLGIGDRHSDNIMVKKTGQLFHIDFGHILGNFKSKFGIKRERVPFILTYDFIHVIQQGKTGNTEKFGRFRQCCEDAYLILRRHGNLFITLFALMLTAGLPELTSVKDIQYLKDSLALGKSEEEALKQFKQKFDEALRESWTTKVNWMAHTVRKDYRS
How it was run: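 p110β full-length/p85 iSH2 construct (BV-949), 25 nM, with 1 μM ATP and 10 μg/mL phosphatidylinositol in 10 mM Tris pH 7.5, 3 mM MgCl2, 50 mM NaCl, 0.05% CHAPS, 1 mM DTT. 60 min at room temperature; ATP remaining read by Kinase-Glo luminescence. IC50 from 8-point four-parameter logistic fit.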

PI3K delta = molecular target: T3, PI3K delta (Homo sapiens, UniProt O00329); test: PI3K delta kinase assay (Kinase-Glo luminescence); assay type: biochemical
T3 construct: for the full-length p110-d subunit are generated and fused by overlapping PCR; p85(iSH2) fusion partner (see partner chain) (N); His tag (C); made in house; host or cells: baculovirus; Tn5 (Trichoplusia ni) or TiniPro insect cells
T3 sequence (O00329 with tags, fused parts or gaps limits assumed): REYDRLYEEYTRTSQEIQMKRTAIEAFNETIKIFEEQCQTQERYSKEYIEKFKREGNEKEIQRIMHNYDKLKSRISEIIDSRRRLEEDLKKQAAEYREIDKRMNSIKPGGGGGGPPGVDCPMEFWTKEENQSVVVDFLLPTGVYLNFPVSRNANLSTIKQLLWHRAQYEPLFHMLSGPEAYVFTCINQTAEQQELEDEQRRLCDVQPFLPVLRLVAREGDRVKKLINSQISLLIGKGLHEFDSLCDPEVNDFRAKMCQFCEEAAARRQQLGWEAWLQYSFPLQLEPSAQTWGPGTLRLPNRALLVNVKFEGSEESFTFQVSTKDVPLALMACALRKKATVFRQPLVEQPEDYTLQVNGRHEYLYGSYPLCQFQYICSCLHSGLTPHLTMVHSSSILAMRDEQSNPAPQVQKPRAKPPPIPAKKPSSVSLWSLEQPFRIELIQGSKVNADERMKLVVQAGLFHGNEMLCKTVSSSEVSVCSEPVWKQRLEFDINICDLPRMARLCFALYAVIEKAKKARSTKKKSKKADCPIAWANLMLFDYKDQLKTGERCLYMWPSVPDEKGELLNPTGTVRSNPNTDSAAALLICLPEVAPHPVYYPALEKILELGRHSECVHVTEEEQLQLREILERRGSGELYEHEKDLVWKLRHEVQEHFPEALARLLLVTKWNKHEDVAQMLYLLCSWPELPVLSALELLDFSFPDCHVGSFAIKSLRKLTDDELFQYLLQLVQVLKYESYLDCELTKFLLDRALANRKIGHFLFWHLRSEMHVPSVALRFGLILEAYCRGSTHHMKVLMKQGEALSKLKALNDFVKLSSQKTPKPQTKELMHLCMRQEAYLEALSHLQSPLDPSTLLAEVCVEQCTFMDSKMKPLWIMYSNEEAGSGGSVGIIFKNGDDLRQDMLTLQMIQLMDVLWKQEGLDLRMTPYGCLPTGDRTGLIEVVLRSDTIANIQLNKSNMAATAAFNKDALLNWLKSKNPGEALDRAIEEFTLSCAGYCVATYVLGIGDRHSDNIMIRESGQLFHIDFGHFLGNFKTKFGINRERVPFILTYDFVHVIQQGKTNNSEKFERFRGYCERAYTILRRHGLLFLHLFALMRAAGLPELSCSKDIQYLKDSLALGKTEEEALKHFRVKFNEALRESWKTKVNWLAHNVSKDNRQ
How it was run: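 Recombinant p85(iSH2)-Gly linker-p110δ full-length construct (BV1060, C-terminal His tag) was used at 10 nM with 10 μg/mL phosphatidylinositol and 1 μM ATP in 10 mM Tris-HCl pH 7.5, 3 mM MgCl2, 50 mM NaCl, 0.05% CHAPS, 1 mM DTT. After 60 min at room temperature, remaining ATP was measured by Kinase-Glo luminescence.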

[1] = system: PKB Ser473 phosphorylation in Rat1-myr-HA-p110 alpha cells; test: Reverse protein array assay, PKB Ser473 phosphorylation in Rat1-myr-p110 alpha cells; assay type: cell-based; conditions: 0.5 h, pAkt Ser473, 30 minutes compound incubation, read-out: p-PKB IC50
How it was run: (§1)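 Lysates were arrayed at four dilutions, and phospho-PKB Ser473 was quantified by relative fluorescence signal. They came from Rat1-myr-HA-p110 alpha, beta or delta cells exposed for 30 min at 37 °C to an 8-point compound series with 0.2% DMSO constant.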

[2] = system: PKB Ser473 phosphorylation in Rat1-myr-HA-p110 beta cells; test: Reverse protein array assay, PKB Ser473 phosphorylation in Rat1-myr-p110 beta cells; assay type: cell-based; conditions: 0.5 h, pAkt Ser473, 30 minutes incubation, read-out: p-PKB IC50
How it was run: as §1

T1 sequence (P42336 with tags, fused parts or gaps limits assumed): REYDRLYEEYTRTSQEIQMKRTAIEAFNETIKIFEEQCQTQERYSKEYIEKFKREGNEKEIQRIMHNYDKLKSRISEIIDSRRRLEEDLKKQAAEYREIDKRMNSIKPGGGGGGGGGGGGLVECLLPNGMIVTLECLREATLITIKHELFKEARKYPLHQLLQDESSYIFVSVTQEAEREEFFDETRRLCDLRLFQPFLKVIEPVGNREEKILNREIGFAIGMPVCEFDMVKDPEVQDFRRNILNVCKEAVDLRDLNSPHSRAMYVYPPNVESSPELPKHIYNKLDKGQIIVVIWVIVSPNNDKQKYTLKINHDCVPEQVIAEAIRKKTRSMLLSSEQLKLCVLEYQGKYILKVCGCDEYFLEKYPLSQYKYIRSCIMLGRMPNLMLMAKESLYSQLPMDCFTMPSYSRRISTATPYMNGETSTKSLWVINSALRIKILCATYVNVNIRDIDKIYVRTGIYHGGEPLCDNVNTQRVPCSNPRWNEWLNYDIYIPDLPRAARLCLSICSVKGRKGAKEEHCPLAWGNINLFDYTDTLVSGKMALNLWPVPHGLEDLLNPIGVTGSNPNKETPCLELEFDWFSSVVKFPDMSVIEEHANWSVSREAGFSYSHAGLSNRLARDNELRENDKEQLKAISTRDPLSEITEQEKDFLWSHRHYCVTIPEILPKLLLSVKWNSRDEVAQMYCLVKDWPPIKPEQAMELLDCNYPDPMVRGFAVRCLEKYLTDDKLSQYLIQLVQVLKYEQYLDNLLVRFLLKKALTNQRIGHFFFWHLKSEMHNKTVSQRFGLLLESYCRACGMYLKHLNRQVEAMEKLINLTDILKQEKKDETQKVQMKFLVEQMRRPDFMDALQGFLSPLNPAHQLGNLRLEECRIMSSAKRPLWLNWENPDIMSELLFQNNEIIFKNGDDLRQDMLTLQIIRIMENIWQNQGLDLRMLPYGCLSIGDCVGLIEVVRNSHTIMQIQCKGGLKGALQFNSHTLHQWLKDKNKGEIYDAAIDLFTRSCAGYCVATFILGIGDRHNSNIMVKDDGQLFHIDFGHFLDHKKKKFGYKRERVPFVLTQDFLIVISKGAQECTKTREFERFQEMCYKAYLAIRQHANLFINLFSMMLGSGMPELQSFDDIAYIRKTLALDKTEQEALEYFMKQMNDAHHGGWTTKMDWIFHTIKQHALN

SMILES	IC50 (PI3K alpha) [nM]	IC50 (PI3K beta) [nM]	IC50 (PI3K delta) [nM]	IC50 [1] [nM]	IC50 [2] [nM]
COc1cc(-c2ccc3ncc4c(c3c2)n(-c2cn(C(C)C)nc2C)c(=O)n4C)cnc1CO [Example 194.1, 8-(6-Hydroxymethyl-5-methoxy-pyridin-3-yl)-1-(1-isopropyl-3-methyl-1H-pyrazol-4-yl)-3-methyl-1,3-dihydro-imidazo[4,5-c]quinolin-2-one]	34	324	15	44	81
COc1cc(-c2ccc3ncc4c(c3c2)n(-c2cn(C)nc2Cl)c(=O)n4C)cnc1CO [Example 194.2, 1-(3-chloro-1-methyl-1H-pyrazol-4-yl)-8-(6-hydroxymethyl-5-methoxy-pyridin-3-yl)-3-methyl-1,3-dihydro-imidazo[4,5-c]quinolin-2-one]	4	6	< 3	9	10
CCOCc1ncc(-c2ccc3ncc4c(c3c2)n(-c2cn(C)nc2Cl)c(=O)n4C)cc1OC [Example 196.1, 1-(3-Chloro-1-methyl-1H-pyrazol-4-yl)-8-(6-ethoxymethyl-5-methoxy-pyridin-3-yl)-3-methyl-1,3-dihydro-imidazo[4,5-c]quinolin-2-one]	29	77	5	45	103
COc1ncc(-c2ccc3ncc4c(c3c2)n(-c2cn(C)nc2Cl)c(=O)n4C)cc1CO [Example 200, 1-(3-Chloro-1-methyl-1H-pyrazol-4-yl)-8-(5-hydroxymethyl-6-methoxy-pyridin-3-yl)-3-methyl-1,3-dihydro-imidazo[4,5-c]quinolin-2-one]	9	13	10	< 5	< 5
COCc1cc(-c2ccc3ncc4c(c3c2)n(-c2cn(C)nc2Cl)c(=O)n4C)cnc1OC [Example 201, 1-(3-Chloro-1-methyl-1H-pyrazol-4-yl)-8-(6-methoxy-5-methoxymethyl-pyridin-3-yl)-3-methyl-1,3-dihydro-imidazo[4,5-c]quinolin-2-one]	4	6	< 3	12	19
COc1cc(-c2ccc3ncc4c(c3c2)n(-c2cn(CCO)nc2C)c(=O)n4C)cnc1C [Example 211.1, 1-[1-(2-Hydroxy-ethyl)-3-methyl-1H-pyrazol-4-yl]-8-(5-methoxy-6-methyl-pyridin-3-yl)-3-methyl-1,3-dihydro-imidazo[4,5-c]quinolin-2-one]	6	18	14	11	61
Cc1nn(C(C)C)cc1-n1c(=O)n(C)c2cnc3ccc(-c4cncc(C(O)(CF)CF)c4)cc3c21 [Example 219, 8-[5-(2-Fluoro-1-fluoromethyl-1-hydroxy-ethyl)-pyridin-3-yl]-1-(1-isopropyl-3-methyl-1H-pyrazol-4-yl)-3-methyl-1,3-dihydro-imidazo[4,5-c]quinolin-2-one]	12	49	13	52	497
CCn1cc(-n2c(=O)n(C)c3cnc4ccc(-c5cncc(C6(C#N)CCC6)c5)cc4c32)c(C)n1 [Example 221.2, 1-{5-[1-(1-Ethyl-3-methyl-1H-pyrazol-4-yl)-3-methyl-2-oxo-2,3-dihydro-1H-imidazo[4,5-c]quinolin-8-yl]-pyridin-3-yl}-cyclobutanecarbonitrile]	13	29	6	18	103
CC(=O)Nc1cc(-c2ccc3ncc4c(c3c2)n(-c2cn(C)nc2C)c(=O)n4C)cnc1Cl [Example 222, N-{2-Chloro-5-[1-(1,3-dimethyl-1H-pyrazol-4-yl)-3-methyl-2-oxo-2,3-dihydro-1H-imidazo[4,5-c]quinolin-8-yl]-pyridin-3-yl}-acetamide]	43	134	82	55	52
Cc1nn(C)cc1-n1c(=O)n(C)c2cnc3ccc(-c4cnc(Cl)c(NS(C)(=O)=O)c4)cc3c21 [Example 223, N-{2-Chloro-5-[1-(1,3-dimethyl-1H-pyrazol-4-yl)-3-methyl-2-oxo-2,3-dihydro-1H-imidazo[4,5-c]quinolin-8-yl]-pyridin-3-yl}-methanesulfonamide]	3	7	6	11	24
Cc1nn(C)cc1-n1c(=O)n(C)c2cnc3ccc(-c4cnc(N)c(C(=O)NC(C)C)c4)cc3c21 [Example 225, 2-Amino-5-[1-(1,3-dimethyl-1H-pyrazol-4-yl)-3-methyl-2-oxo-2,3-dihydro-1H-imidazo[4,5-c]quinolin-8-yl]-N-isopropyl-nicotinamide]	20	44	26	80	111
COc1ncc(-c2ccc3ncc4c(c3c2)n(-c2cn(C(C)C)nc2C)c(=O)n4C)c(OC)n1 [Example 234.3, 8-(2,4-Dimethoxy-pyrimidin-5-yl)-1-(1-isopropyl-3-methyl-1H-pyrazol-4-yl)-3-methyl-1,3-dihydro-imidazo[4,5-c]quinolin-2-one]	15	150	< 3	15	15
Cc1nn(C)cc1-n1c(=O)n(C)c2cnc3ccc(-c4cnc(CO)c(Cl)c4)cc3c21 [Example 238, 8-(5-Chloro-6-hydroxymethyl-pyridin-3-yl)-1-(1,3-dimethyl-1H-pyrazol-4-yl)-3-methyl-1,3-dihydro-imidazo[4,5-c]quinolin-2-one]	29	103	473	32	116
CCOC(C)(C)c1cncc(-c2ccc3ncc4c(c3c2)n(-c2cn(C)nc2C)c(=O)n4C)c1 [Example 240, 1-(1,3-Dimethyl-1H-pyrazol-4-yl)-8-[5-(1-ethoxy-1-methyl-ethyl)-pyridin-3-yl]-3-methyl-1,3-dihydro-imidazo[4,5-c]quinolin-2-one]	6	91	< 3	72	128
C=CCn1c(=O)n(-c2cn(C)nc2C)c2c3cc(-c4cncc(N)c4)ccc3ncc21 [Example 246, 3-Allyl-8-(5-amino-pyridin-3-yl)-1-(1,3-dimethyl-1H-pyrazol-4-yl)-1,3-dihydro-imidazo[4,5-c]quinolin-2-one]	28	82	10	227	294
